The molecules below were run on Puccinia recondita f. sp. tritici (assay: Test C: wheat leaf rust control on wheat seedlings). Conditions: 250 ppm, sprayed to run-off on wheat seedlings, inoculated the following day; 100 = 100% disease control, 0 = no control.
Format: in vivo
From the text: General protocol for preparing test suspensions for Tests A-C: the test compounds were first dissolved in acetone in an amount equal to 3% of the final volume and then suspended at the desired concentration (in ppm) in acetone and purified water (50/50 mix by volume) containing 250 ppm of the surfactant PEG400 (polyhydric alcohol esters). The resulting test suspensions were then used in Tests A-C. The test solution was sprayed to the point of run-off on wheat seedlings. The following day the seedlings were inoculated with a spore suspension of Puccinia recondita f. sp. tritici (the causal agent of wheat leaf rust) and incubated in a saturated atmosphere at 20° C. for 24 h, and then moved to a growth chamber at 20° C. for 6 days, after which time disease ratings were made. Results for Tests A-C are given in Table A. In the Table, a rating of 100 indicates 100% disease control and a rating of 0 indicates no disease control (relative to the controls). A dash (-) indicates the compound was not tested.

| SMILES | Test C disease control rating [%] |
| --- | --- |
| C=CCNC(=O)OCc1cccc(-c2noc(C(F)(F)F)n2)c1 [Compound 97] | 100 |
| CC(C)(OC(N)=O)c1ccc(-c2noc(C(F)(F)F)n2)cc1 [Compound 87] | 100 |
| O=C(OC(c1ccc(-c2noc(C(F)(F)F)n2)cc1)c1cccc(F)c1)n1ccnc1 (stereo not drawn) [Compound 125] | 100 |
| CNC(=O)OC(c1ccc(-c2noc(C(F)(F)F)n2)cc1)c1cccc(Cl)c1 (stereo not drawn) [Compound 102] | 90 |
| CCCNC(=O)OC(c1ccccc1)c1ccc(-c2noc(C(F)(F)F)n2)cc1 (stereo not drawn) [Compound 139] | 100 |
| CCC(C)NC(=O)OCc1ccc(-c2noc(C(F)(F)F)n2)cc1 (racemic) [Compound 14] | 100 |
| C=C(C)CNC(=O)OC(c1ccc(C)cc1)c1ccc(-c2noc(C(F)(F)F)n2)cc1 (stereo not drawn) [Compound 146] | 97 |
| CC(C)NC(=O)OCc1ccc(-c2noc(C(F)(F)F)n2)cc1 [Compound 3] | 100 |
| NC(=O)OC(c1ccccc1)c1ccc(-c2noc(C(F)(F)F)n2)cc1 (stereo not drawn) [Compound 117] | 100 |
| CN(C)C(=O)OC(c1ccccc1)c1ccc(-c2noc(C(F)(F)F)n2)cc1 (stereo not drawn) [Compound 121] | 99 |
| O=C(OC(c1ccccc1)c1ccc(-c2noc(C(F)(F)F)n2)cc1)n1ccnc1 (stereo not drawn) [Compound 111] | 100 |
| COC(=O)c1ccc(CNC(=O)OC(c2ccccc2)c2ccc(-c3noc(C(F)(F)F)n3)cc2)cc1 (stereo not drawn) [Compound 119] | 74 |
| CCNC(=O)OC(c1ccccc1)c1ccc(-c2noc(C(F)(F)F)n2)cc1 (stereo not drawn) [Compound 110] | 100 |

Same assay, conditions: 260 ppm, sprayed to run-off on wheat seedlings, inoculated the following day; 100 = 100% disease control, 0 = no control

| SMILES | Test C disease control rating [%] |
| --- | --- |
| CNC(=O)OCc1ccc(-c2noc(C(F)(F)F)n2)cc1 [Compound 9] | 100 |

Same assay, conditions: 265 ppm, sprayed to run-off on wheat seedlings, inoculated the following day; 100 = 100% disease control, 0 = no control

| SMILES | Test C disease control rating [%] |
| --- | --- |
| C#CCNC(=O)OCc1ccc(-c2noc(C(F)(F)F)n2)cc1 [Compound 12] | 100 |

Same assay, conditions: 270 ppm, sprayed to run-off on wheat seedlings, inoculated the following day; 100 = 100% disease control, 0 = no control

| SMILES | Test C disease control rating [%] |
| --- | --- |
| O=C(Nc1ccccc1)OCc1ccc(-c2noc(C(F)(F)F)n2)cc1 [Compound 1] | 100 |

Same assay, conditions: Puccinia recondita, 168 h; 50 ppm, sprayed to run-off on wheat seedlings, inoculated the following day; 100 = 100% disease control, 0 = no control; read-out: Test C disease control rating

| SMILES | pest or weed control at 50 ppm [%] |
| --- | --- |
| O=C(OCc1ccc(-c2noc(C(F)(F)F)n2)o1)n1ccnc1 [Compound 82] | 0 |

Same assay, conditions: Puccinia recondita, 168 h; 260 ppm, sprayed to run-off on wheat seedlings, inoculated the following day; 100 = 100% disease control, 0 = no control; read-out: Test C disease control rating

| SMILES | pest or weed control at 260 ppm [%] |
| --- | --- |
| NC(=O)OCc1ccc(-c2noc(C(F)(F)F)n2)cc1 [Compound 17, [4-[5-(trifluoromethyl)-1,2,4-oxadiazol-3-yl]phenyl]methyl carbamate] | 100 |

These molecules were tested on Phakopsora pachyrhizi (assay: Test A: Asian soybean rust control on soybean seedlings). Conditions: 250 ppm, sprayed to run-off on soybean seedlings, inoculated the following day; 100 = 100% disease control, 0 = no control.
Format: in vivo
From the text: General protocol for preparing test suspensions for Tests A-C: the test compounds were first dissolved in acetone in an amount equal to 3% of the final volume and then suspended at the desired concentration (in ppm) in acetone and purified water (50/50 mix by volume) containing 250 ppm of the surfactant PEG400 (polyhydric alcohol esters). The resulting test suspensions were then used in Tests A-C.
The test solution was sprayed to the point of run-off on soybean seedlings. The following day the seedlings were inoculated with a spore suspension of Phakopsora pachyrhizi (the causal agent of Asian soybean rust) and incubated in a saturated atmosphere at 22° C. for 24 h, and then moved to a growth chamber at 22° C. for 8 days, after which time visual disease ratings were made.
Results for Tests A-C are given in Table A. In the Table, a rating of 100 indicates 100% disease control and a rating of 0 indicates no disease control (relative to the controls). A dash (-) indicates the compound was not tested.

| SMILES | Test A disease control rating [%] |
| --- | --- |
| C=CCNC(=O)OCc1cccc(-c2noc(C(F)(F)F)n2)c1 [Compound 97] | 100 |
| CC(C)(OC(N)=O)c1ccc(-c2noc(C(F)(F)F)n2)cc1 [Compound 87] | 100 |
| O=C(OC(c1ccc(-c2noc(C(F)(F)F)n2)cc1)c1cccc(F)c1)n1ccnc1 (stereo not drawn) [Compound 125] | 100 |
| CNC(=O)OC(c1ccc(-c2noc(C(F)(F)F)n2)cc1)c1cccc(Cl)c1 (stereo not drawn) [Compound 102] | 100 |
| CCCNC(=O)OC(c1ccccc1)c1ccc(-c2noc(C(F)(F)F)n2)cc1 (stereo not drawn) [Compound 139] | 100 |
| CCC(C)NC(=O)OCc1ccc(-c2noc(C(F)(F)F)n2)cc1 (racemic) [Compound 14] | 100 |
| C=C(C)CNC(=O)OC(c1ccc(C)cc1)c1ccc(-c2noc(C(F)(F)F)n2)cc1 (stereo not drawn) [Compound 146] | 100 |
| CC(C)NC(=O)OCc1ccc(-c2noc(C(F)(F)F)n2)cc1 [Compound 3] | 100 |
| NC(=O)OC(c1ccccc1)c1ccc(-c2noc(C(F)(F)F)n2)cc1 (stereo not drawn) [Compound 117] | 100 |
| CN(C)C(=O)OC(c1ccccc1)c1ccc(-c2noc(C(F)(F)F)n2)cc1 (stereo not drawn) [Compound 121] | 100 |
| O=C(OC(c1ccccc1)c1ccc(-c2noc(C(F)(F)F)n2)cc1)n1ccnc1 (stereo not drawn) [Compound 111] | 100 |
| COC(=O)c1ccc(CNC(=O)OC(c2ccccc2)c2ccc(-c3noc(C(F)(F)F)n3)cc2)cc1 (stereo not drawn) [Compound 119] | 100 |
| CCNC(=O)OC(c1ccccc1)c1ccc(-c2noc(C(F)(F)F)n2)cc1 (stereo not drawn) [Compound 110] | 100 |

Same assay, conditions: 260 ppm, sprayed to run-off on soybean seedlings, inoculated the following day; 100 = 100% disease control, 0 = no control

| SMILES | Test A disease control rating [%] |
| --- | --- |
| CNC(=O)OCc1ccc(-c2noc(C(F)(F)F)n2)cc1 [Compound 9] | 100 |

Same assay, conditions: 265 ppm, sprayed to run-off on soybean seedlings, inoculated the following day; 100 = 100% disease control, 0 = no control

| SMILES | Test A disease control rating [%] |
| --- | --- |
| C#CCNC(=O)OCc1ccc(-c2noc(C(F)(F)F)n2)cc1 [Compound 12] | 100 |

Same assay, conditions: 270 ppm, sprayed to run-off on soybean seedlings, inoculated the following day; 100 = 100% disease control, 0 = no control

| SMILES | Test A disease control rating [%] |
| --- | --- |
| O=C(Nc1ccccc1)OCc1ccc(-c2noc(C(F)(F)F)n2)cc1 [Compound 1] | 100 |

Same assay, conditions: Phakopsora pachyrhizi, 216 h; 50 ppm, sprayed to run-off on soybean seedlings, inoculated the following day; 100 = 100% disease control, 0 = no control; read-out: Test A disease control rating

| SMILES | pest or weed control at 50 ppm [%] |
| --- | --- |
| O=C(OCc1ccc(-c2noc(C(F)(F)F)n2)o1)n1ccnc1 [Compound 82] | 89 |

Same assay, conditions: Phakopsora pachyrhizi, 216 h; 260 ppm, sprayed to run-off on soybean seedlings, inoculated the following day; 100 = 100% disease control, 0 = no control; read-out: Test A disease control rating

| SMILES | pest or weed control at 260 ppm [%] |
| --- | --- |
| NC(=O)OCc1ccc(-c2noc(C(F)(F)F)n2)cc1 [Compound 17, [4-[5-(trifluoromethyl)-1,2,4-oxadiazol-3-yl]phenyl]methyl carbamate] | 100 |

Each molecule was assayed on Zymoseptoria tritici (assay: Test B: wheat leaf blotch control on wheat seedlings). Conditions: 250 ppm (incl. values marked * = tested at 250 ppm), sprayed to run-off on wheat seedlings, inoculated the following day; 100 = 100% disease control, 0 = no control.
Format: in vivo
From the text: General protocol for preparing test suspensions for Tests A-C: the test compounds were first dissolved in acetone in an amount equal to 3% of the final volume and then suspended at the desired concentration (in ppm) in acetone and purified water (50/50 mix by volume) containing 250 ppm of the surfactant PEG400 (polyhydric alcohol esters). The resulting test suspensions were then used in Tests A-C. The test solution was sprayed to the point of run-off on wheat seedlings. The following day the seedlings were inoculated with a spore suspension of Zymoseptoria tritici (the causal agent of wheat leaf blotch) and incubated in a saturated atmosphere at 24° C. for 48 h, and then moved to a growth chamber at 20° C. for 17 days, after which time disease ratings were made. Results for Tests A-C are given in Table A. In the Table, a rating of 100 indicates 100% disease control and a rating of 0 indicates no disease control (relative to the controls). A dash (-) indicates the compound was not tested.

| SMILES | Test B disease control rating [%] |
| --- | --- |
| C=CCNC(=O)OCc1cccc(-c2noc(C(F)(F)F)n2)c1 [Compound 97] | 52 |
| CC(C)(OC(N)=O)c1ccc(-c2noc(C(F)(F)F)n2)cc1 [Compound 87] | 99 |
| O=C(OC(c1ccc(-c2noc(C(F)(F)F)n2)cc1)c1cccc(F)c1)n1ccnc1 (stereo not drawn) [Compound 125] | 97 |
| CNC(=O)OC(c1ccc(-c2noc(C(F)(F)F)n2)cc1)c1cccc(Cl)c1 (stereo not drawn) [Compound 102] | 96 |
| CCCNC(=O)OC(c1ccccc1)c1ccc(-c2noc(C(F)(F)F)n2)cc1 (stereo not drawn) [Compound 139] | 56 |
| CCC(C)NC(=O)OCc1ccc(-c2noc(C(F)(F)F)n2)cc1 (racemic) [Compound 14] | 84 |
| C=C(C)CNC(=O)OC(c1ccc(C)cc1)c1ccc(-c2noc(C(F)(F)F)n2)cc1 (stereo not drawn) [Compound 146] | 21 |
| CC(C)NC(=O)OCc1ccc(-c2noc(C(F)(F)F)n2)cc1 [Compound 3] | 73 |

Same assay, conditions: 260 ppm, sprayed to run-off on wheat seedlings, inoculated the following day; 100 = 100% disease control, 0 = no control

| SMILES | Test B disease control rating [%] |
| --- | --- |
| NC(=O)OCc1ccc(-c2noc(C(F)(F)F)n2)cc1 [Compound 17, [4-[5-(trifluoromethyl)-1,2,4-oxadiazol-3-yl]phenyl]methyl carbamate] | 92 |
| CNC(=O)OCc1ccc(-c2noc(C(F)(F)F)n2)cc1 [Compound 9] | 94 |

Same assay, conditions: 265 ppm, sprayed to run-off on wheat seedlings, inoculated the following day; 100 = 100% disease control, 0 = no control

| SMILES | Test B disease control rating [%] |
| --- | --- |
| C#CCNC(=O)OCc1ccc(-c2noc(C(F)(F)F)n2)cc1 [Compound 12] | 100 |

Same assay, conditions: 270 ppm, sprayed to run-off on wheat seedlings, inoculated the following day; 100 = 100% disease control, 0 = no control

| SMILES | Test B disease control rating [%] |
| --- | --- |
| O=C(Nc1ccccc1)OCc1ccc(-c2noc(C(F)(F)F)n2)cc1 [Compound 1] | 79 |
